# From PMC5732813, “Novel piplartine-containing ruthenium complexes: synthesis, cell growth inhibition, apoptosis induction and ROS production on HCT116 cells” (Oncotarget, 2017)
# Several values for one entry are separate records, joined by “and”; a condition that tells them apart may be missing. Identical values can stand only once. Like-named read-outs stand apart in the source and are kept apart here.
# What was measured:
# [1] = system: HCT116 cells; assay: Gene expression analysis by qPCR array (TaqMan Array Human Molecular Mechanisms of Cancer); type: cell-based; details: HCT116, 12 h; DOX 1 μM, PL 10 μM, 1 2.5 μM, 2 5 μM; negative control RQ = 1.0
# Protocol: HCT116 cells were plated in bottles tissue culture (7x10^4 cells/mL). After 12h of incubation with the complexes, total RNA was isolated from the cells using the RNeasy Plus mini kit (Qiagen, Hilden, Germany) according to the manufacturer’s instructions. The RNA was evaluated by fluorimetry (QuBit™, Life Technologies, Camarillo, CA, EUA). RNA reverse transcription was performed using Superscript VILO™ (Invitrogen Corporation, Waltham, MA, USA). A 96-well plate TaqMan® Array Human Molecular Mechanisms of Cancer (ID 4418806, Applied Biosystems™, Foster City, CA, EUA) was used for the gene expression study by qPCR. The reactions were conducted in the ABI ViiA7 (Applied Biosystems™, Foster City, CA, EUA). The cycle conditions comprised 2 min at 50 °C, 20 s at 95 °C, then 40 cycles of 3 s at 95 °C and 30 s at 60 °C. […] The GAPDH, 18S and HPRT1 genes were used for normalization. All experiments were performed in DNase/RNase free conditions.
# [2] = system: HCT116 cells; details: trypan blue
# Protocol: In all experiments, 2 mL of a HCT116 cell solution (7 x 10^4 cells/mL) was inserted in 24-well plates and incubated overnight to allow the cells to adhere to the plate surface. […] The negative control was treated with the vehicle (0.1% of a solution containing 70% sorbitol, 25% tween 80 and 5% water) used for diluting the compounds tested. […] Cell viability was assessed using trypan blue exclusion assay for all experiments.
substance,measurement,setting,value
[Ru(piplartine)(dppb)(bipy)](PF6)2 [Complex 2],RQ ABL1,[1],0.863
same,RQ AKT1,[1],0.642
same,RQ AKT2,[1],0.592
same,RQ APC,[1],0.576
same,RQ BAX,[1],0.739
same,RQ BCAR1,[1],0.596
same,RQ BCL2,[1],0.8 and 0.748
same,RQ BCL2L1,[1],0.739
same,RQ BCL2L11,[1],0.904
same,RQ BID,[1],0.671
same,RQ BRAF,[1],0.781
same,RQ CASP8,[1],0.930
same,RQ CASP9,[1],0.828
same,RQ CCND1,[1],0.5 and 0.461
same,RQ CCND3,[1],0.723
same,RQ CCNE1,[1],0.893
same,RQ CDC42,[1],1.411
same,RQ CDH1,[1],1.1 and 1.098
same,RQ CDK2,[1],0.693
same,RQ CDK4,[1],0.898
same,RQ CDKN1A,[1],0.996
same,RQ CDKN1B,[1],0.783
same,RQ CDKN2A,[1],1.2 and 1.153
same,RQ CRK,[1],0.758
same,RQ CTNNB1,[1],0.877
same,RQ CYCS,[1],1.0 and 1.043
same,RQ E2F1,[1],0.736
same,RQ EGFR,[1],"11,276.3 and 11,276.298"
same,RQ ELK1,[1],0.628
same,RQ ERBB2,[1],1.006
same,RQ FADD,[1],74.1 and 74.142
same,RQ FAS,[1],1.037
same,RQ FGF2,[1],1.003
same,RQ FYN,[1],1.169
same,RQ FZD1,[1],0.9 and 0.860
same,RQ GRB2,[1],0.693
same,RQ GSK3B,[1],0.738
same,RQ GUSB,[1],2.9
same,RQ HRAS,[1],0.561
same,RQ IGF1R,[1],0.7 and 0.677
same,RQ ITGA2B,[1],0.1 and 0.135
same,RQ ITGAV,[1],"1,149.0 and 1,149.015"
same,RQ ITGB1,[1],0.579
same,RQ ITGB3,[1],1.243
same,RQ JUN,[1],2.3 and 2.306
same,RQ KDR,[1],1.4 and 1.408
same,RQ KRAS,[1],0.979
same,RQ MAP2K1,[1],"2,107.2 and 2,107.239"
same,RQ MAP3K5,[1],4.3 and 4.314
same,RQ MAPK1,[1],1.062
same,RQ MAPK3,[1],1.9 and 1.853
same,RQ MAPK8,[1],0.623
same,RQ MAPK14,[1],1.145
same,RQ MAX,[1],0.9 and 0.912
same,RQ MDM2,[1],1.272
same,RQ MYC,[1],0.796
same,RQ NFKB1,[1],0.699
same,RQ NFKB2,[1],1.536
same,RQ NFKBIA,[1],0.9 and 0.894
same,RQ NRAS,[1],0.923
same,RQ PIK3CA,[1],0.565
same,RQ PIK3R1,[1],1.3 and 1.299
same,RQ PTEN,[1],0.8 and 0.776
same,RQ PTK2,[1],2.4 and 2.357
same,RQ PTK2B,[1],1.0 and 1.024
same,RQ RAC1,[1],2.7 and 2.676
same,RQ RAF1,[1],0.9 and 0.909
same,RQ RB1,[1],0.821
same,RQ RELA,[1],0.845
same,RQ RHOA,[1],1.017
same,RQ SMAD4,[1],2.1 and 2.050
same,RQ SOS1,[1],0.2 and 0.188
same,RQ SPP1,[1],10.1 and 10.094
same,RQ SRC,[1],0.801
same,RQ TCF3,[1],0.608
same,RQ TGFB1,[1],0.868
same,RQ TGFBR1,[1],0.781
same,RQ TGFBR2,[1],1.1 and 1.085
same,RQ TP53,[1],1.5 and 1.466
same,RQ VEGFA,[1],1.321
same,reduced the number of viable cells,"[2]; HCT116, 2.5 μM, 24 h",35.5%
same,reduced the number of viable cells,"[2]; HCT116, 2.5 μM, 48 h",55.5%
same,reduced the number of viable cells,"[2]; HCT116, 5 μM, 24 h",45.8%
same,reduced the number of viable cells,"[2]; HCT116, 5 μM, 48 h",66.9%
